Test results: patent US6090787A, “Antithrombotic agents” (Eli Lilly and Company, priority 1999, dated 2000)
Square brackets hold non-standard residues; d marks the D form. Peptide text beside a SMILES is read from it. dPip = O=C(O)[C@H]1CCCCN1; Nphe = O=C(O)CNCc1ccccc1; Nleu = CC(C)CNCC(=O)O

Experiments:
Human plasmin = molecular target: T1, Human plasmin (Homo sapiens, UniProt P00747); experiment: Fibrinolytic protease selectivity, Kass, plasmin chromogenic assay; type: biochemical; conditions: apparent association constant
T1 construct: Human plasmin is purchased from Boehringer Mannheim; purchased Boehringer Mannheim, Indianapolis, Indiana
Protocol: (§1) By substantially following the procedures described above for human thrombin, and using other human blood coagulation system serine proteases and proteases of the fibrinolytic system with the appropriate chromogenic substrates, identified below, selectivity of the compounds of the present invention with respect to the coagulation factor serine proteases and with respect to the fibrinolytic system serine proteases are evaluated as well as their substantial lack of interference with serine proteases of the fibrinolytic system. Thrombin inhibitors preferably should spare fibrinolysis induced by urokinase, tissue plasminogen activator (t-PA) and streptokinase. This would be important to the therapeutic use of such agents as an adjunct to streptokinase, t-PA or urokinase thrombolytic therapy and to the use of such agents as an endogenous fibrinolysis-sparing (with respect to t-PA and urokinase) antithrombotic agent. In addition to the lack of interference with the amidase activity of the fibrinolytic proteases, such fibrinolytic system sparing can be studied by the use of human plasma clots and their lysis by the respective fibrinolytic plasminogen activators.
(§2) Human plasmin is purchased from Boehringer Mannheim, Indianapolis, Indiana; nt-PA is purchased as single chain activity reference from American Diagnostica, Greenwich, Conn.; modified-t-PA6 (mt-PA6) is prepared at Eli Lilly and Company by procedure known in the art (See, Burck, et al., J. Biol. Chem., 265, […] (1990). Plasmin chromogenic substrate H--D--Val--Leu--Lys--p--nitroanilide and tissue plasminogen activator (t-PA) substrate H--D--Ile--Pro--Arg--p--nitroanilide are purchased from Kabi Vitrum, Stockholm, Sweden.

human plasma [1] = experiment: Human plasma anticoagulation, activated partial thromboplastin time (APTT); conditions: concentration required to double the APTT, linear extrapolation
Protocol: (§3) Dog plasma and rat plasma is obtained from conscious mixed-breed hounds (either sex, Hazelton-LRE, Kalamazoo, Mich., U.S.A.) or from anesthetized male Sprague-Dawley rats (Harlan Sprague-Dawley, Inc., Indianapolis, Ind., U.S.A.) by venipuncture into 3.8 percent citrate. Fibrinogen is prepared from in-date ACD human blood as the fraction I-2 according to previous procedures and specifications. Smith, Biochem. J., 185, 1-11 (1980); and Smith, et al., Biochemistry, 11, 2958-2967 (1972). Human fibrinogen is also purchased as 98 percent pure/plasmin free from American Diagnostica, Greenwich, Conn. Coagulation reagents ACTIN, Thromboplastin, and Human plasma are from Baxter Healthcare Corp., Dade Division, Miami, Fla. Bovine thrombin from Parke-Davis ([…], Mich.) is used for coagulation assays in plasma.
(§4) Coagulation assay procedures are as previously described. Smith, et al., Thrombosis Research, 50, 163-174 (1988). A CoAScreener coagulation instrument (American LABor, Inc.) is used for all coagulation assay measurements. The prothrombin time (PT) is measured by adding 0.05 mL saline and 0.05 mL Thromboplastin-C reagent to 0.05 mL test plasma. The activated partial thromboplastin time (APTT) is measured by incubation of 0.05 mL test plasma with 0.05 mL Actin reagent for 120 seconds followed by 0.05 mL CaCl2 (0.02 M). The thrombin time (TT) is measured by adding 0.05 mL saline and 0.05 mL thrombin (10 NIH units/mL) to 0.05 mL test plasma. The compounds of formula I are added to human or animal plasma over a wide range of concentrations to determine prolongation effects on the APTT, PT, and TT assays. Linear extrapolations are performed to estimate the concentrations required to double the clotting time for each assay.

[2] = molecular target: T2, tissue plasminogen activator (t-PA) (Homo sapiens, UniProt P00750); experiment: Fibrinolytic protease selectivity, Kass, t-PA chromogenic assay; type: biochemical; conditions: apparent association constant
T2 construct: purchased American Diagnostica, Greenwich, Conn
Protocol: as §1, §2

Bovine trypsin = molecular target: T3, Bovine trypsin (Bos taurus, UniProt P00760); experiment: Serine protease selectivity, Kass, trypsin chromogenic assay; type: biochemical; conditions: apparent association constant
T3 construct: purchased Worthington Biochemicals, Freehold, N.J
T3 sequence (P00760 24-246): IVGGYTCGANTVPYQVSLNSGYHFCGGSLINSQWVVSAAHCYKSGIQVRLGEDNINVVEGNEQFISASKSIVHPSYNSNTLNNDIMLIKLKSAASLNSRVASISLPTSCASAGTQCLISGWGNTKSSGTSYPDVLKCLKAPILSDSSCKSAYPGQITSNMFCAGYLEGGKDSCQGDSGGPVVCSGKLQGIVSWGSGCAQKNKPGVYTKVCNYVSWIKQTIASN
Protocol: as §1
(§5) Human factors X, Xa, IXa, XIa, and XIIa are purchased from Enzyme Research Laboratories, South Bend, Ind.; human urokinase from Leo Pharmaceuticals, Denmark; and recombinant activated Protein C (aPC) is prepared at Eli Lilly and Co. substantially according to U.S. Pat. No. 4,981,952 incorporated by reference herein in its entirety. Chromogenic substrates: N--Benzoyl--Ile--Glu--Gly--Arg--p--nitroanilide (for factor Xa); N--Cbz--D--Arg--Gly--Arg--p--nitroanilide (for factor IXa assay as the factor Xa substrate); Pyroglutamyl--Pro--Arg--p--nitroanilide (for Factor XIa and for aPC); H--D--Pro--Phe--Arg--p--nitroanilide (for factor XIIa); and Pyroglutamyl--Gly--Arg--p--nitroanilide (for urokinase); are purchased from KabiVitrum, Stockholm, Sweden, or from Midwest Biotech, Fishers, Indiana. Bovine trypsin is purchased from Worthington Biochemicals, Freehold, N.J., and human plasma kallikrein from Kabi Vitrum, Stockholm, Sweden. Chromogenic substrate H--D--Pro--Phe--Arg--p--nitroanilide for plasma kallikrein is purchased from Kabi Vitrum, Stockholm, Sweden. N--Benzoyl--Phe--Val--Arg--p--nitroanilide, the substrate for human thrombin and for trypsin, is synthesized according to procedures described above for the compounds of the present invention, using known methods of peptide coupling from commercially available reactants or purchased from Midwest Biotech, Fishers, Ind.

human plasma [3] = experiment: Human plasma anticoagulation, prothrombin time (PT); conditions: concentration required to double the PT, linear extrapolation
Protocol: as §3, §4

factor Xa = molecular target: T4, factor Xa (Homo sapiens, UniProt P00742); experiment: Serine protease selectivity, Kass, factor Xa chromogenic assay; type: biochemical; conditions: apparent association constant
T4 construct: Human factors X, Xa, IXa, XIa, and XIIa are purchased from Enzyme Research Laboratories; purchased Enzyme Research Laboratories, South Bend, Ind
Protocol: as §1, §5

human plasma [4] = experiment: Human plasma anticoagulation, thrombin time (TT); conditions: concentration required to double the thrombin time, linear extrapolation
Protocol: as §3, §4

human thrombin = molecular target: T5, human thrombin (Homo sapiens, UniProt P00734); experiment: Inhibition of amidase activity of thrombin (Kass), chromogenic substrate; type: biochemical; conditions: apparent association constant, mean over a range of concentrations
T5 construct: purified human thrombin, Enzyme Research Laboratories; purchased Enzyme Research Laboratories, South Bend, Indiana
Protocol: The assay is carried out by mixing 50 μL buffer (0.03 M Tris, 0.15 M NaCl, pH 7.4) with 25 μL of bovine thrombin or human thrombin solution (0.21 mg/mL of thrombostat bovine thrombin, Parke-Davis, or purified human thrombin, Enzyme Research Laboratories, South Bend, Indiana, at about 8 NIH units/mL, in the same buffer) and 25 μL of test compound in a solvent (in 50% aqueous methanol, v:v). The 150 μL of an aqueous solution of the chromogenic substrate (at 0.25 mg/mL) are added and the rates of hydrolysis of the substrate are measured by monitoring the reactions at 405 nm for the release of p-nitroaniline. Standard curves are constructed by plotting free thrombin concentration against hydrolysis rate. The hydrolysis rates observed with test compounds are then converted to "free thrombin" values in the respective assays by use of the standard curves. The bound thrombin (bound to test compound) is calculated by subtracting the amount of free thrombin observed in each assay from the known initial amount of thrombin used in the assay. The amount of free inhibitor in each assay is calculated by subtracting the number of moles of bound thrombin from the number of moles of added inhibitor (test compound).
The Kass value is the hypothetical equilibrium constant for the reaction between thrombin and the test compound (I). [formula]
Kass is calculated for a range of concentrations of test compounds and the mean value is reported in units of liter per mole.

T4 sequence (P00742 235-488 limits assumed): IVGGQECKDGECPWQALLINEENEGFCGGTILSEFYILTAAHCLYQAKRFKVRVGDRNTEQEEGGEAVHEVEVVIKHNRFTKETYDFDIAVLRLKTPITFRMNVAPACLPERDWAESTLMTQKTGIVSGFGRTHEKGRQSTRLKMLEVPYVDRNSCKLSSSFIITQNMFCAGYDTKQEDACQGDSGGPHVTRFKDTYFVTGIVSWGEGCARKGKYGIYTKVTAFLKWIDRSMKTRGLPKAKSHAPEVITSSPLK
T4 sequence (P00742 41-179 partner limits assumed): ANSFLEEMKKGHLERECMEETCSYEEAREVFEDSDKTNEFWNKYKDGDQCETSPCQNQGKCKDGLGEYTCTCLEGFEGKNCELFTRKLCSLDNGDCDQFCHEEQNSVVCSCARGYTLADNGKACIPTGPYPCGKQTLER
T1 sequence (P00747 581-810 limits assumed): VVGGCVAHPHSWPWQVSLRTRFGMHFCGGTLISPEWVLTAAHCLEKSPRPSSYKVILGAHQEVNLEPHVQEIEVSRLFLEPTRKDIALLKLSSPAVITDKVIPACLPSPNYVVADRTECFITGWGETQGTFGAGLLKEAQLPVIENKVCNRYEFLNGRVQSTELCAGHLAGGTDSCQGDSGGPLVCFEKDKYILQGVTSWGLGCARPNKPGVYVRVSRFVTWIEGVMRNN
T1 sequence (P00747 97-580 partner limits assumed): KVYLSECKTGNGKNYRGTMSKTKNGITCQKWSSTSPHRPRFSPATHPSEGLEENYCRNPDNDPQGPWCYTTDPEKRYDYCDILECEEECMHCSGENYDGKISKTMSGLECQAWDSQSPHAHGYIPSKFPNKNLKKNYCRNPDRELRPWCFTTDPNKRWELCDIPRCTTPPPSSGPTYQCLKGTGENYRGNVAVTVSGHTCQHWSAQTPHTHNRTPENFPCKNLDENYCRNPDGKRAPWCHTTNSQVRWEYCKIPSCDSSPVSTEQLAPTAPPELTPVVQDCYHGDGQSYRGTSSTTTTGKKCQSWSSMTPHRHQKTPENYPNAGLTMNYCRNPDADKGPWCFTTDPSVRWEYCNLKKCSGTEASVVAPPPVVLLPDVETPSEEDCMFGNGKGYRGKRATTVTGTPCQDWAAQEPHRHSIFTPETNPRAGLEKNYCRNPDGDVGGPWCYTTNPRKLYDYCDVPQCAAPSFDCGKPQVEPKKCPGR
T2 sequence (P00750 36-562): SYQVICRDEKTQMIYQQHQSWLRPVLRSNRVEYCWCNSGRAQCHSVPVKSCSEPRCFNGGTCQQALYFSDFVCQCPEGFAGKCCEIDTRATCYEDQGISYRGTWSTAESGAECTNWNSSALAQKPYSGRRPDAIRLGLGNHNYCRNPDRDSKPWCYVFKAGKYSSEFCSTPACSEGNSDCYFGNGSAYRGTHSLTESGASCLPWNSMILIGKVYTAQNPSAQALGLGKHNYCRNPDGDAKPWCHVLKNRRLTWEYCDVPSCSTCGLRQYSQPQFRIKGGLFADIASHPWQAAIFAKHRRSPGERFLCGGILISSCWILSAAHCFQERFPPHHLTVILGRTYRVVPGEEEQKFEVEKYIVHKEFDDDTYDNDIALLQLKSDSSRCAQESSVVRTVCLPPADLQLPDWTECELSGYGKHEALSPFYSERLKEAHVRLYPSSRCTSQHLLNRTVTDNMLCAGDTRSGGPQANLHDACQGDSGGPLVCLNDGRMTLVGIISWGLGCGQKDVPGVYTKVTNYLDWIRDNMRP

Row | Compound | Enzyme Kass Plasmin (Human plasmin) [L/mol × 10^6] | Enzyme Kass t-PA [2] [L/mol × 10^6] | Enzyme Kass Trypsin (Bovine trypsin) [L/mol × 10^6] | Enzyme Kass Xa (factor Xa) [L/mol × 10^6] | Enzyme Kass Human Thrombin (human thrombin) [L/mol × 10^6] | Human Plasma Anticoagulation 2 × Clotting time APTT (human plasma [1]) | Human Plasma Anticoagulation 2 × Clotting time PT (human plasma [3]) | Human Plasma Anticoagulation 2 × Clotting time TT (human plasma [4]) [ng/mL]
1 | CC(C)N(CC(=O)NC(C=O)CCCNC(=N)N)C(=O)C1CCCCN1.Cl.Cl [Example 4, D--hPro--N(i--Pr)Gly--ArgH.2HCl] | 0.031 | 0.001 | 0.5 | 0.074 | 9.7 | 12,000 ng/mL | 14,000 ng/mL | 230
2 | CNCC(=O)N(CCc1ccccc1)CC(=O)N[C@H](C=O)CCCNC(=N)N.Cl.Cl [Example 17, Sar--N(CH2 CH2 Ph)Gly--ArgH.2HCl] | 0.20 | 0.001 | 0.38 | 2.2 | 2.9 | 2,200 ng/mL | 2,700 ng/mL | 150
3 | CC(C)CN(CC(=O)N[C@H](C=O)CCCNC(=N)N)C(=O)[C@H]1CCCCN1.Cl.Cl [Example 5, D--hPro--N(i--Bu)Gly--ArgH.2HCl] (H-[dPip]-[Nleu]-Arg-aldehyde) | 0.050 | 0.002 | 1.6 | 0.060 | 24 | 3,800 ng/mL | 4,900 ng/mL | 100

The next lines start with results.

Row | Enzyme Kass Plasmin (Human plasmin) [L/mol × 10^6] | Enzyme Kass t-PA [2] [L/mol × 10^6] | Enzyme Kass Trypsin (Bovine trypsin) [L/mol × 10^6] | Enzyme Kass Xa (factor Xa) [L/mol × 10^6] | Enzyme Kass Human Thrombin (human thrombin) [L/mol × 10^6] | Compound | Human Plasma Anticoagulation 2 × Clotting time APTT (human plasma [1]) | Human Plasma Anticoagulation 2 × Clotting time PT (human plasma [3]) | Human Plasma Anticoagulation 2 × Clotting time TT (human plasma [4]) [ng/mL]
4 | 0.13 | 0.010 | 10 | 0.25 | 11 | Cl.Cl.N=C(N)NCCC[C@@H](C=O)NC(=O)CN(Cc1ccccc1)C(=O)[C@H]1CCCCN1 [Example 7, D--hPro--N(Bn)Gly--ArgH.2HCl] (H-[dPip]-[Nphe]-Arg-aldehyde) | 3,700 ng/mL | 4,400 ng/mL | 120
5 | 0.016 | 0.001 | 0.60 | 0.062 | 1.2 | Cl.Cl.N=C(N)NCCC[C@@H](C=O)NC(=O)CN(CCCC(=O)O)C(=O)[C@H]1CCCCN1 [Example 14, D--hPro--N(CH2 CH2 CH2 COOH)Gly--ArgH.2HCl] | 20,000 ng/mL | 30,000 ng/mL | 700
6 | 0.036 | 0.0039 | 1.1 | 0.21 | 16 | Cl.Cl.N=C(N)NCCC[C@@H](C=O)NC(=O)CN(C(=O)[C@H]1CCCCN1)c1ccccc1 [Example 11, D--hPro--N(Ph)Gly--ArgH.2HCl] | 2,200 ng/mL | 3,100 ng/mL | 120
7 | 0.22 | < 0.001 | 0.22 | 0.11 | 0.64 | Cl.Cl.N=C(N)NCCC[C@@H](C=O)NC(=O)CN(CCc1ccccc1)C(=O)[C@@H]1CCCN1 [Example 19, L--Pro--N(CH2 CH2 Ph)Gly--ArgH.2HCl] | 10,000 ng/mL | 10,000 ng/mL | 490
8 | 0.12 | 0.006 | 6.0 | 0.31 | 24 | Cl.Cl.N=C(N)NCCC[C@@H](C=O)NC(=O)CN(CCCc1ccccc1)C(=O)[C@H]1CCCCN1 [Example 9, D--hPro--N(PhCH2 CH2 CH2)Gly--ArgH.2HCl] | 2,200 ng/mL | 3,000 ng/mL | 55
